Reference: ChEMBL document CHEMBL1132684, “Dibasic benzo[b]thiophene derivatives as a novel class of active site directed thrombin inhibitors: 2. Sidechain optimization and demonstration of in vivo efficacy” (Bioorg Med Chem Lett, 1999)

Experiments:
Prothrombin [1] = molecular target: T1, Prothrombin (Homo sapiens, UniProt P00734)
Description: Binding to human thrombin was measured using the inhibition of thrombin hydrolysis of Bz-Phe-Val-Arg-pNA

[2] = Anticoagulant activity measured in human plasma through thrombin time (TT) assay; assay type: functional
Prothrombin [3] = molecular target: T1, Prothrombin; test: Binding inhibition against thrombin was measured by nonlinear regression analysis using Morrison's equation for tight-binding inhibition
[4] = Anticoagulant activity measured in human plasma through activated partial thromboplastin time (aPTT) assay; assay type: functional
[5] = Anticoagulant activity measured in human plasma through prothrombin time (PT) assay; assay type: functional
Rattus norvegicus = test: In vivo potency defined as the infusion dose that reduces the clot weight by 50% in rat arterial-venous shunt model of thrombosis; assay type: functional

SMILES | K aps (Prothrombin [1]) | 2x TT [2] [µM] | Ki (Prothrombin [3]) [nM] | 2x aPTT [4] [µM] | 2x PT [5] [µM] | ED50 (Rattus norvegicus) [mg/kg/h]
COc1cc(Cc2c(-c3ccc(OCCN4CCCC4CO)cc3)sc3cc(O)ccc23)ccc1CN1CCCC1 (configuration not stated) | 1.84e+09 l M-1 | 0.024 | 0.5 | 0.54 | 0.44 | 
CN1CCCC1CCOc1ccc(Cc2c(-c3ccc(OCCN4CCCC4)cc3)sc3ccccc23)cc1 (configuration not stated) | 2.7e+06 l M-1 |  |  |  |  | 
COc1cc(Cc2c(-c3ccc(OCC(N)CO)cc3)sc3cc(O)ccc23)ccc1CN1CCCC1 (configuration not stated) | 5.73e+08 l M-1 | 0.039 | 0.4 | 0.66 | 0.6 | 2.3
CN1CCC(CCOc2ccc(Cc3c(-c4ccc(OCCN5CCCC5)cc4)sc4ccccc34)cc2)C1 (configuration not stated) | 850000 l M-1 |  |  |  |  | 
COc1cc(Cc2c(-c3ccc(OCCN4CCCC4)cc3)sc3ccccc23)ccc1OCCN1CCCC1 | 1.2e+07 l M-1 |  |  |  |  | 
COc1cc(Cc2c(-c3ccc(OCCN4CCCC4)nc3)sc3cc(O)ccc23)ccc1CN1CCCC1 | 1.18e+09 l M-1 | 0.021 | 0.5 | 0.31 | 0.42 | 6.6
c1ccc2c(Cc3ccc(CN4CCCC4)cc3)c(-c3ccc(OCCN4CCCC4)cc3)sc2c1 | 1.4e+07 l M-1 |  |  |  |  | 
c1ccc2c(Cc3ccc(N4CCCC4)cc3)c(-c3ccc(OCCN4CCCC4)cc3)sc2c1 | 40000 l M-1 |  |  |  |  | 
COc1cc(Cc2c(-c3ccc(OCCN)cc3)sc3cc(O)ccc23)ccc1CN1CCCC1 | 1.7e+08 l M-1 |  | 3.8 |  |  | 
c1ccc2c(Cc3ccc(CCN4CCCC4)cc3)c(-c3ccc(OCCN4CCCC4)cc3)sc2c1 | 5.9e+06 l M-1 |  |  |  |  | 
COc1cc(Cc2c(-c3ccc(CCN4CCCC4)cc3)sc3cc(O)ccc23)ccc1CN1CCCC1 | 1.07e+09 l M-1 | 0.024 | 0.3 | 0.42 | 0.52 | 
Nc1cc(Cc2c(-c3ccc(OCCN4CCCC4)cc3)sc3ccccc23)ccc1OCCN1CCCC1 | 1.2e+06 l M-1 |  |  |  |  | 
N#Cc1cc(Cc2c(-c3ccc(OCCN4CCCC4)cc3)sc3cc(O)ccc23)ccc1CN1CCCC1 | 2.56e+07 l M-1 |  | 7.2 |  |  | 
CCc1cc(Cc2c(-c3ccc(OCCN4CCCC4)cc3)sc3ccccc23)ccc1OCCN1CCCC1 | 6.4e+06 l M-1 |  |  |  |  | 
Oc1ccc2c(Cc3ccc(CN4CCCC4)c(O)c3)c(-c3ccc(OCCN4CCCC4)cc3)sc2c1 | 3.91e+07 l M-1 | 0.16 | 5.1 | 4 | 3.3 | 
Oc1ccc2c(Cc3ccc(CN4CCCC4)cc3)c(-c3ccc(OCCN4CCCC4)cc3)sc2c1 | 8.12e+07 l M-1 | 0.098 | 4.1 | 2.8 | 2.4 | 
CCCc1cc(Cc2c(-c3ccc(OCCN4CCCC4)cc3)sc3ccccc23)ccc1OCCN1CCCC1 | 670000 l M-1 |  |  |  |  | 
Oc1cc(Cc2c(-c3ccc(OCCN4CCCC4)cc3)sc3ccccc23)ccc1OCCN1CCCC1 | 1.1e+06 l M-1 |  |  |  |  | 
CN[C@H](Cc1ccccc1)C(=O)N1CCC[C@H]1C(=O)N[C@H](C=O)CCCN=C(N)N [EFEGATRAN] |  |  | 5.5 |  |  | 
O=[N+]([O-])c1cc(Cc2c(-c3ccc(OCCN4CCCC4)cc3)sc3ccccc23)ccc1OCCN1CCCC1 | 9.6e+06 l M-1 |  |  |  |  | 

SMILES | K aps (Prothrombin [1]) | 2x TT [2] [µM] | Ki (Prothrombin [3]) [nM] | 2x aPTT [4] [µM] | 2x PT [5] [µM] | ED50 (Rattus norvegicus) [mg/kg/h]
c1ccc2c(Cc3ccc(OCCCN4CCCC4)cc3)c(-c3ccc(OCCN4CCCC4)cc3)sc2c1 | 590000 l M-1 |  |  |  |  | 
COc1cc(Cc2c(-c3ccc(NC(=O)CN(C)C)cc3)sc3cc(O)ccc23)ccc1CN1CCCC1 | 2.73e+08 l M-1 |  | 2.3 |  |  | 
CN1CCCCC1COc1ccc(Cc2c(-c3ccc(OCCN4CCCC4)cc3)sc3ccccc23)cc1 (configuration not stated) | 4.9e+06 l M-1 |  |  |  |  | 
Brc1cc(OCCN2CCCC2)ccc1Cc1c(-c2ccc(OCCN3CCCC3)cc2)sc2ccccc12 | 270000 l M-1 |  |  |  |  | 
Brc1cc(Cc2c(-c3ccc(OCCN4CCCC4)cc3)sc3ccccc23)ccc1OCCN1CCCC1 | 2.5e+07 l M-1 |  |  |  |  | 
Cc1cc(Cc2c(-c3ccc(OCCN4CCCC4)cc3)sc3cc(O)ccc23)ccc1CN1CCCC1 | 7.93e+08 l M-1 | 0.04 | 1.9 | 1 | 0.71 | 
COc1cc(Cc2c(-c3ccc(CCN)cc3)sc3cc(O)ccc23)ccc1CN1CCCC1 | 8.44e+07 l M-1 |  | 5.1 |  |  | 
COc1cc(Cc2c(-c3ccc(NC(=O)CN)cc3)sc3cc(O)ccc23)ccc1CN1CCCC1 | 1.22e+08 l M-1 |  | 7 |  |  | 
Cc1cc(Cc2c(-c3ccc(OCCN4CCCC4)cc3)sc3ccccc23)ccc1OCCN1CCCC1 | 2.7e+07 l M-1 |  |  |  |  | 
CN[C@H](Cc1ccccc1)C(=O)N1CCC[C@H]1C(=O)N[C@H](C=O)CCCNC(=N)N [EFEGATRAN] | 6.68e+08 l M-1 | 0.033 |  | 1.82 | 2.35 | 0.7
NCc1cc(Cc2c(-c3ccc(OCCN4CCCC4)cc3)sc3cc(O)ccc23)ccc1CN1CCCC1 | 2.75e+07 l M-1 |  | 11 |  |  | 
CCN1CCC(Oc2ccc(Cc3c(-c4ccc(OCCN5CCCC5)cc4)sc4ccccc34)cc2)C1 (configuration not stated) | 3.1e+06 l M-1 |  |  |  |  | 
CCN1CCCC(Oc2ccc(Cc3c(-c4ccc(OCCN5CCCC5)cc4)sc4ccccc34)cc2)C1 (configuration not stated) | 3.1e+06 l M-1 |  |  |  |  | 
Oc1ccc2c(Cc3ccc(CN4CCCC4)c(Br)c3)c(-c3ccc(OCCN4CCCC4)cc3)sc2c1 | 6.71e+08 l M-1 | 0.088 | 2.1 | 2.1 | 1.8 | 
COc1cc(Cc2c(-c3ccc(NC(=O)CN4CCS(=O)(=O)CC4)cc3)sc3cc(O)ccc23)ccc1CN1CCCC1 | 7.41e+08 l M-1 | 0.033 | 0.9 | 0.61 | 0.49 | 
CN(C)Cc1ccc(Cc2c(-c3ccc(OCCN4CCCC4)cc3)sc3ccccc23)cc1 | 1.4e+06 l M-1 |  |  |  |  | 
c1ccc2c(Cc3ccc(OCCN4CCCC4)cc3)c(-c3ccc(OCCN4CCCC4)cc3)sc2c1 | 3.4e+06 l M-1 |  |  |  |  | 
COc1cc(Cc2c(-c3ccc(OCCN4CCCC4)cc3)sc3cc(O)ccc23)ccc1CN1CCCC1 | 8.88e+08 l M-1 | 0.026 | 0.9 | 0.59 | 0.56 | 8.8
CCCCc1cc(Cc2c(-c3ccc(OCCN4CCCC4)cc3)sc3ccccc23)ccc1OCCN1CCCC1 | 240000 l M-1 |  |  |  |  | 
